Experimental data as given in PubChem BioAssay AID200 (DTP/NCI, 2004).
Values joined by “and” are separate entries in the source; they are usually repeats but may differ in a detail not shown here. Equal values may be shown once. Toxic doses and inconclusive results are not listed. How the source made its calls: active means survival T/C of 150% or more; inactive means T/C below 125% in these data.

Test system: B6C3F1 mice, B16 melanoma ip, median survival T/C
Test: NCI In Vivo Anticancer Drug Screen. Data for tumor model B16 Melanoma (intraperitoneal) in B6C3F1 mice
Conditions: endpoint: median survival time, higher = longer survival
How it was run: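 Transplantable tumor in mice; treated vs vehicle control groups; survival or tumor size measured; value = T/C ratio.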

[1] = dose: 25.0 mg/kg/injection, schedule: Q01DX009 (ip), vehicle: saline with Tween-80
[2] = dose: 50.0 mg/kg/injection, schedule: Q01DX009 (ip), vehicle: saline with Tween-80
[3] = dose: 100.0 mg/kg/injection, schedule: Q01DX009 (ip), vehicle: saline with Tween-80

Measured: T/C

COC(=O)C(N)Cc1ccc(O)c(O)c1 (stereo unspecified)
inactive: dose: 12.5 mg/kg/injection, schedule: Q01DX009 (ip), vehicle: saline 102 % of control | dose: 25.0 mg/kg/injection, schedule: Q01DX009 (ip), vehicle: saline 88 % of control and 102 % of control | dose: 25.0 mg/kg/injection, schedule: Q01DX012 (ip), vehicle: saline 95 % of control | dose: 25.0 mg/kg/injection, schedule: Q01DX024 (ip), vehicle: saline 95 % of control | dose: 25.0 mg/kg/injection, schedule: Q08HX120 (ip), vehicle: saline 112 % of control | dose: 50.0 mg/kg/injection, schedule: Q01DX009 (ip), vehicle: saline 90 % of control and 100 % of control | dose: 50.0 mg/kg/injection, schedule: Q01DX012 (ip), vehicle: saline 94 % of control | dose: 50.0 mg/kg/injection, schedule: Q01DX024 (ip), vehicle: saline 97 % of control | dose: 100.0 mg/kg/injection, schedule: Q01DX009 (ip), vehicle: saline 94 % of control and 98 % of control and 106 % of control | dose: 100.0 mg/kg/injection, schedule: Q01DX012 (ip), vehicle: saline 94 % of control and 101 % of control | dose: 100.0 mg/kg/injection, schedule: Q01DX024 (ip), vehicle: saline 91 % of control and 99 % of control | dose: 100.0 mg/kg/injection, schedule: Q08HX120 (ip), vehicle: saline 109 % of control | dose: 100.0 mg/kg/injection, schedule: Q#A X040 (ip), vehicle: saline 91 % of control | dose: 200.0 mg/kg/injection, schedule: Q01DX009 (ip), vehicle: saline 111 % of control and 103 % of control and 106 % of control | dose: 200.0 mg/kg/injection, schedule: Q01DX012 (ip), vehicle: saline 96 % of control and 105 % of control | dose: 200.0 mg/kg/injection, schedule: Q01DX024 (ip), vehicle: saline 97 % of control and 106 % of control | dose: 200.0 mg/kg/injection, schedule: Q08HX120 (ip), vehicle: saline 110 % of control | dose: 200.0 mg/kg/injection, schedule: Q#A X040 (ip), vehicle: saline 100 % of control | dose: 400.0 mg/kg/injection, schedule: Q01DX009 (ip), vehicle: saline 117 % of control and 100 % of control and 105 % of control | dose: 400.0 mg/kg/injection, schedule: Q01DX012 (ip), vehicle: saline 117 % of control and 102 % of control | dose: 400.0 mg/kg/injection, schedule: Q01DX024 (ip), vehicle: saline 108 % of control and 104 % of control | dose: 400.0 mg/kg/injection, schedule: Q#A X040 (ip), vehicle: saline 95 % of control | dose: 600.0 mg/kg/injection, schedule: Q#A X040 (ip), vehicle: saline 95 % of control | dose: 800.0 mg/kg/injection, schedule: Q01DX009 (ip), vehicle: saline 117 % of control | dose: 800.0 mg/kg/injection, schedule: Q01DX012 (ip), vehicle: saline 116 % of control

Nc1nc2ccc(NCc3ccc(C(=O)NC(CCC(=O)O)C(=O)O)cc3)cc2c(=O)[nH]1 (stereo unspecified)
inactive: dose: 6.25 mg/kg/injection, schedule: Q01DX009 (ip), vehicle: saline with Tween-80 88 % of control | dose: 12.5 mg/kg/injection, schedule: Q01DX009 (ip), vehicle: saline with Tween-80 91 % of control | [1] 97 % of control | [2] 91 % of control | [3] 93 % of control

N=c1ccn2c(n1)OC1C(O)C(CO)OC12 (stereo unspecified)
inactive: dose: 18.75 mg/kg/injection, schedule: Q01DX009 (ip), vehicle: saline 100 % of control | dose: 37.5 mg/kg/injection, schedule: Q01DX009 (ip), vehicle: saline 118 % of control and 104 % of control | dose: 75.0 mg/kg/injection, schedule: Q01DX009 (ip), vehicle: saline 100 % of control and 106 % of control (2×) | dose: 150.0 mg/kg/injection, schedule: Q01DX009 (ip), vehicle: saline 114 % of control and 106 % of control (2×) | dose: 300.0 mg/kg/injection, schedule: Q01DX009 (ip), vehicle: saline 112 % of control and 121 % of control and 106 % of control

CCCCC(NC(=O)CN)C(=O)O (stereo unspecified)
inactive: dose: 100.0 mg/kg/injection, schedule: Q01DX009 (ip), vehicle: Klucel (hydroxypropylcellulose) (HPC) 103 % of control | dose: 200.0 mg/kg/injection, schedule: Q01DX009 (ip), vehicle: Klucel (hydroxypropylcellulose) (HPC) 107 % of control | dose: 400.0 mg/kg/injection, schedule: Q01DX009 (ip), vehicle: Klucel (hydroxypropylcellulose) (HPC) 122 % of control

O=C1C2CC(Cl)C(SSC3CC4C(=O)N(SC(Cl)(Cl)C(Cl)Cl)C(=O)C4CC3Cl)CC2C(=O)N1SC(Cl)(Cl)C(Cl)Cl (stereo unspecified)
inactive: [1] 98 % of control | [2] 104 % of control | [3] 98 % of control
